Patent publication US20080262108A1, “Method” (priority 2004, published 2008)

Key:
[1] = tested on: CEL; test: CEL expression at the mRNA level in treated macrophages (RT-PCR); type: cell-based, human; conditions: monocyte-derived macrophages cultured for 7 days, treated for 24 hours; LPS 1 μg/ml, IFN-γ 200 U/ml, oxLDL 50 μg protein/ml; cells from four donors; FIG. 4C
Experimental: (§1) Macrophage cell culture. Mononuclear cells were isolated through a Ficoll-Hypaque discontinuous gradient (Boyum et al. 1976) from buffy coats obtained from the local blood bank (Sahlgrenska University Hospital, Göteborg, Sweden). The cells were resuspended in RPMI 1640 medium (PM Laboratories GmbH, Pasching, Austria) supplemented with 2 mmol/l glutamine, 2 mmol/l nonessential amino acids, 100 U/ml penicillin, 100 μg/ml streptomycin, and 20 mmol/l sodium pyruvate. Monocytes were obtained by allowing cells to adhere to plastic for 60 min at 37° C. Non-adhered cells were removed by washing with PBS and the adhered monocytes were used immediately or after 4 hours for experiments or left to differentiate into macrophages in supplemented RPMI1640 containing 20% heat-inactivated human serum for up to 9 days. Macrophages were then approximately 95% pure, as judged by flow cytometry. For experiments the cells were incubated for 24 h with supplemented RPMI1640 (pH 7.4) with 1 μg/mL lipopolysaccaride (LPS), interferon-gamma (γ-IFN) 200 U/mL (Sigma Aldrich, Stockholm, Sweden). The viability of cells was >95% in all incubations, as determined by Trypan blue exclusion.
Exposure of macrophages to oxidatively modified LDL. […] Protein concentration of lipoproteins was determined with the BioRad protein assay using γ-globulin as standard. […]

[2] = tested on: CEL; test: CEL expression at the protein level in treated macrophages (Western blot); type: cell-based, human; conditions: monocyte-derived macrophages cultured for 7 days, treated for 24 hours; LPS 1 μg/ml, IFN-γ 200 U/ml, oxLDL 50 μg protein/ml; cells from four donors; FIG. 4B
Experimental: as §1, with “For experiments the cells were incubated for 24 h with supplemented RPMI1640 (pH 7.4) with 1 μg/mL lipopolysaccaride (LPS), interferon-gamma (γ-IFN) 200 U/mL (Sigma Aldrich, Stockholm, Sweden).” left out
Exposure of macrophages to oxidatively modified LDL. […] Protein concentration of lipoproteins was determined with the BioRad protein assay using γ-globulin as standard.
Western blot analysis. […] The primary antibodies were detected with POD-conjugated secondary IgG and ECL™ Western Blotting Detection Reagents (Amersham Biosciences), visualized on ECL™ films (Amersham Biosciences).

Molecule | CEL expression at the mRNA level [1] | CEL expression at the protein level [2]
lipopolysaccharide [LPS] | could not detect any consistent increase or decrease in CEL expression | could not detect any consistent increase or decrease in CEL expression
interferon-gamma (protein, UniProt P01579 24-161, looked up, interferon-gamma (Sigma Aldrich) used as stimulus on macrophages) Interferon gamma: QDPYVKEAENLKKYFNAGHSDVADNGTLFLGILKNWKEESDRKIMQSQIVSFYFKLFKNFKDDQSIQKSVETIKEDMNVKFFNSNKKKRDDFEKLTNYSVTDLNVQRKAIHELIQVMAELSPAAKTGKRKRSQMLFRG | could not detect any consistent increase or decrease in CEL expression | could not detect any consistent increase or decrease in CEL expression
